Reference: patent publication US8404670B2 (Sunovion Pharmaceuticals Inc., priority 2009, dated 2013)

Target: T1, human histamine H3 receptor (Homo sapiens, UniProt Q9Y5N1)
T1 construct: host or cells: cells expressing the human H3 receptor
Experiment: H3 GTPγS assay (SPA method), histamine H3 in vitro assay
Assay type: biochemical
Conditions: GTPγ[35S] binding to membranes of cells expressing human H3; antagonist mode with R-γ-Me-Histamine at EC80 (30 nM); in one embodiment HCl salts tested; read-out: Potency (functional potency as indicated by IC50)
Method: H3 GTPγS assay (SPA method) was performed at EuroScreen (Belgium, ES-392-C) using conventional methods. Briefly, cells expressing the human histamine H3 receptor were homogenized in 15 mM Tris-HCl pH 7.5, 2 mM MgCl2, 0.3 mM EDTA, and 1 mM EGTA. Membranes were washed twice in the above tris buffer, collected by centrifugation (40,000×g, 25 min), and re-suspended in 75 mM Tris-HCl pH 7.5, 12.5 mM MgCl2, 0.3 mM EDTA, 1 mM EGTA, and 250 mM sucrose. Membranes were frozen in liquid nitrogen until use. On the day of the assay, membranes were thawed and diluted in assay buffer (20 mM HEPES pH 7.4, 100 mM NaCl, 10 μg/ml saponin, 1 mM MgCl2) to give 500 μg/ml and mixed (v/v) with GDP in assay buffer for a final GDP concentration of 10 μM and incubated on ice for at least 15 min. PVT-WGA beads (Amersham, RPNQ001) were diluted in assay buffer at 50 mg/mL and mixed with GTPγ[^35S] (Amersham, SJ1308) diluted in assay buffer to give ˜25,000 dpm/10 μL and mixed vol/vol just before the start of the reaction. The reaction was started by adding 50 μL of test compound, 20 μL of the membranes:GDP mix, 10 μL of buffer, and 20 μL of the GTPγ[^35S]:beads mix in a 96 well plate Optiplate™ (PerkinElmer, 6005299) covered with topseal (TopCount™, PerkinElmer), mixed with an orbital shaker for 2 min, incubated for 1 hour at room temperature, centrifuged for 10 min at 2000 rpm, incubated for 1 h at room temperature, and counted for 1 min in a TopCount™ reader (PerkinElmer). Dose response curves and IC50 values (concentration to inhibit the reaction by 50%) were calculated by nonlinear regression using XLfit software (IDBS).
For antagonists testing, 10 μL of a reference agonist (R-γ-Me-Histamine) instead of 10 μL buffer was added at a concentration corresponding to the EC80 (30 nM). Control ligands were R-γ-Me-Histamine (Tocris, 0569), Imetit (Sigma, I-135), Thioperamide (Tocris, 0644), and Clobenpropit (Tocris, 0754) diluted in assay buffer.
The compounds provided herein were tested in the histamine H3 in vitro assay. In one embodiment, the respective HCl salts of the compounds provided herein were prepared using standard chemical procedures and tested in the histamine H3 in vitro assay.

T1 sequence (Q9Y5N1 whole entry): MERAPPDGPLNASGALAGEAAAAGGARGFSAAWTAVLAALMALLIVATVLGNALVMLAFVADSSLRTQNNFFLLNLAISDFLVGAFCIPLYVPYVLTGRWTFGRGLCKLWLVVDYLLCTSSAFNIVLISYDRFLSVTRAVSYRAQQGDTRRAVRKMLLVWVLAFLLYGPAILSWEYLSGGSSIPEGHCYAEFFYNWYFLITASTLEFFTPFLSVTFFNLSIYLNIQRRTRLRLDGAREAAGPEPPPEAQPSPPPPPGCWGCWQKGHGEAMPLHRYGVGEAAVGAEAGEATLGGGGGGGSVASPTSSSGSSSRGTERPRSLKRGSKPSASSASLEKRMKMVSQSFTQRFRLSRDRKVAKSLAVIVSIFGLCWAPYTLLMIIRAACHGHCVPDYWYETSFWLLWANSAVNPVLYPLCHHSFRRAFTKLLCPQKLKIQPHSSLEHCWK

Compound	IC50
CC1CCC(N2CCc3nc4cc(-c5ccc(C#N)cc5)ccc4n3CC2)C1 (racemic) [Compound 34, rac-cis/trans-4-(3-(3-methylcyclopentyl)-2,3,4,5-tetrahydro-1H-[1,4]diazepino[1,7-a]benzimidazol-9-yl)benzonitrile]	≤ 100 nM
CC1CCCC1N1CCc2nc3cc(-c4ccc(C#N)cc4)ccc3n2CC1 (racemic) [Compound 35, rac-cis/trans-4-(3-(2-methylcyclopentyl)-2,3,4,5-tetrahydro-1H-[1,4]diazepino[1,7-a]benzimidazol-9-yl)benzonitrile]	≤ 10 nM
c1cc2c(cc1N1CCN(C3CCOC3)CC1)nc1n2CCN(C2CCC2)CC1 (racemic) [Compound 101, rac-3-cyclobutyl-9-(4-(tetrahydrofuran-3-yl)piperazin-1-yl)-2,3,4,5-tetrahydro-1H-[1,4]diazepino[1,7-a]benzimidazole]	≤ 10 nM
NCc1ccc(-c2ccc3c(c2)nc2n3CCN(C3CCC3)CC2)cc1 [Compound 1, 3-cyclobutyl-9-(4-(aminomethyl)phenyl)-2,3,4,5-tetrahydro-1H-[1.4]diazepino[1,7-a]benzimidazole]	≤ 10 nM
N#Cc1ccc(-c2ccc3c(c2)nc2n3CCN(C3CCC3)CC2)cc1 [Compound 2]	≤ 10 nM
CC(=O)Nc1ccc(-c2ccc3c(c2)nc2n3CCN(C3CCC3)CC2)cc1 [Compound 3]	≤ 10 nM
c1cc2cc(-c3ccc4c(c3)nc3n4CCN(C4CCC4)CC3)ccc2[nH]1 [Compound 4]	≤ 100 nM
CC(C1CCC1)N1CCc2nc3cc(-c4ccc(CN)cc4)ccc3n2CC1 (stereo not drawn) [Compound 5]	≤ 100 nM
CC(C1CCC1)N1CCc2nc3cc(-c4ccc(C#N)cc4)ccc3n2CC1 (stereo not drawn) [Compound 6]	≤ 100 nM
CC(C1CCC1)N1CCc2nc3cc(-c4ccc5[nH]ccc5c4)ccc3n2CC1 (stereo not drawn) [Compound 10]	≥ 1000 nM
CC(C1CCC1)N1CCc2nc3cc(Cl)ccc3n2CC1 (stereo not drawn) [Compound 11]	≥ 1000 nM
CN1CCC(N2CCc3nc4cc(-c5ccc(CN)cc5)ccc4n3CC2)CC1 [Compound 16]	≥ 1000 nM
NCc1ccc(-c2ccc3c(c2)nc2n3CCN(Cc3cnc[nH]3)CC2)cc1 [Compound 17]	≥ 1000 nM
N#Cc1ccc(-c2ccc3c(c2)nc2n3CCN(C3CCC3)CC2)cc1F [Compound 22]	≤ 10 nM
c1cnc(-c2ccc3c(c2)nc2n3CCN(C3CCC3)CC2)cn1 [Compound 24]	≤ 10 nM
Cc1nn(C)c(C)c1-c1ccc2c(c1)nc1n2CCN(C2CCC2)CC1 [Compound 26]	≤ 1000 nM

Compound	IC50
N#Cc1ccc(-c2ccc3c(c2)nc2n3CCN(C3CCC3)CC2)cn1 [Compound 27, 5-(3-cyclobutyl-2,3,4,5-tetrahydro-1H-[1,4]diazepino[1,7-a]benzimidazol-9-yl)-picolinonitrile]	≤ 10 nM
c1cnc2[nH]cc(-c3ccc4c(c3)nc3n4CCN(C4CCC4)CC3)c2c1 [Compound 31]	≤ 10 nM
N#Cc1ccc(-c2ccc3c(c2)nc2n3CCN(C3CCOCC3)CC2)cc1 [Compound 38]	≤ 100 nM
N#Cc1ccc(-c2ccc3c(c2)nc2n3CCN(CC3CC3)CC2)cc1 [Compound 39]	≤ 100 nM
Brc1ccc2nc3n(c2c1)CCN(C1CCC1)CC3 [Compound 40]	≤ 100 nM
CNC(=O)c1ccc(Oc2ccc3c(c2)nc2n3CCN(C3CCC3)CC2)nc1 [Compound 50, 6-(3-cyclobutyl-2,3,4,5-tetrahydro-1H-[1,4]diazepino[1,7-a]benzimidazol-9-yloxy)-N-methylnicotinamide]	≤ 10 nM
c1cnc(Oc2ccc3c(c2)nc2n3CCN(C3CCC3)CC2)cn1 [Compound 51]	≤ 100 nM
N#Cc1ccc2c(c1)nc1n2CCN(C2CCC2)CC1 [Compound 54]	≤ 1000 nM
O=C(c1ccc2c(c1)nc1n2CCN(C2CCC2)CC1)N1CCOCC1 [Compound 56]	≤ 100 nM
CN1CCN(C(=O)c2ccc3c(c2)nc2n3CCN(C3CCC3)CC2)CC1 [Compound 58]	≤ 1000 nM
Fc1ccc(CNc2ccc3c(c2)nc2n3CCN(C3CCC3)CC2)cc1 [Compound 62]	≤ 100 nM
N#Cc1ccc(CNc2ccc3c(c2)nc2n3CCN(C3CCC3)CC2)cc1 [Compound 63]	≤ 100 nM
COc1ccnc(Nc2ccc3c(c2)nc2n3CCN(C3CCC3)CC2)n1 [Compound 64]	≤ 100 nM
c1ccc2c(c1)ncn2-c1ccc2c(c1)nc1n2CCN(C2CCC2)CC1 [Compound 68]	≤ 10 nM
c1ccc2c(c1)cnn2-c1ccc2c(c1)nc1n2CCN(C2CCC2)CC1 [Compound 69]	≤ 100 nM
O=c1cccnn1-c1ccc2c(c1)nc1n2CCN(C2CCC2)CC1 [Compound 71, 2-(3-cyclobutyl-2,3,4,5-tetrahydro-1H-[1,4]diazepino[1,7-a]benzimidazol-9-yl)pyridazin-3(2H)-one]	≤ 1000 nM

Other lines, results leading:

IC50	Compound
≥ 1000 nM	CC1CCC(N2CCc3nc4cc(-c5ccc(C#N)cc5)ccc4n3CC2)CC1 (mixture of isomers) [Compound 37, cis/trans-4-(3-(4-methylcyclohexyl)-2,3,4,5-tetrahydro-1H-[1,4]diazepino[1,7-a]benzimidazol-9-yl)benzonitrile]
≤ 1000 nM	CC(=O)Nc1ccc(-c2ccc3c(c2)nc2n3CCN(C(C)C3CCC3)CC2)cc1 (stereo not drawn) [Compound 7]
≤ 1000 nM	CC(=O)Nc1ccc(-c2ccc3c(c2)nc2n3CCN(C3CCN(C)CC3)CC2)cc1 [Compound 9, N-(4-(3-(1-methylpiperidin-4-yl)-2,3,4,5-tetrahydro-1H-[1,4]diazepino[1,7-a]benzimidazol-9-yl)phenyl)acetamide]
≥ 1000 nM	CN1CCC(N2CCc3nc4cc(-c5ccc6[nH]ccc6c5)ccc4n3CC2)CC1 [Compound 13]
≥ 1000 nM	Clc1ccc2c(c1)nc1n2CCN(Cc2cnc[nH]2)CC1 [Compound 15]
≥ 1000 nM	N#Cc1ccc(-c2ccc3c(c2)nc2n3CCN(Cc3cnc[nH]3)CC2)cc1 [Compound 18]
≥ 1000 nM	CC(=O)Nc1ccc(-c2ccc3c(c2)nc2n3CCN(Cc3cnc[nH]3)CC2)cc1 [Compound 19]
≥ 1000 nM	c1ncc(CN2CCc3nc4cc(-c5ccc6[nH]ccc6c5)ccc4n3CC2)[nH]1 [Compound 20]
≤ 1000 nM	Brc1ccc2c(c1)nc1n2CCN(C2CCC2)CC1 [Compound 21]
≤ 100 nM	CC(C)N1CCc2nc3cc(-c4ccc(C#N)cc4)ccc3n2CC1 [Compound 32, 4-(3-isopropyl-2,3,4,5-tetrahydro-1H-[1,4]diazepino[1,7-a]benzimidazol-9-yl)benzonitrile]
≤ 1000 nM	N#Cc1ccc(-c2ccc3nc4n(c3c2)CCN(C2CCC2)CC4)cc1 [Compound 41]
≤ 1000 nM	CC(=O)Nc1ccc(-c2ccc3nc4n(c3c2)CCN(C2CCC2)CC4)cc1 [Compound 42]
≤ 1000 nM	c1cc2cc(-c3ccc4nc5n(c4c3)CCN(C3CCC3)CC5)ccc2[nH]1 [Compound 43]
≤ 100 nM	NCc1ccc(-c2ccc3nc4n(c3c2)CCN(C2CCC2)CC4)cc1 [Compound 44]
≤ 1000 nM	c1cc2nc3n(c2cc1-c1cn[nH]c1)CCN(C1CCC1)CC3 [Compound 49, 3-cyclobutyl-9-(1H-pyrazol-4-yl)-2,3,4,5-tetrahydro-1H-[1,4]diazepino[1,7-a]benzimidazole]
≤ 10 nM	N#Cc1ccc(COc2ccc3c(c2)nc2n3CCN(C3CCC3)CC2)cc1 [Compound 53]
≤ 1000 nM	CN(C)C(=O)c1ccc2c(c1)nc1n2CCN(C2CCC2)CC1 [Compound 57]
≤ 100 nM	O=C(c1ccc2c(c1)nc1n2CCN(C2CCC2)CC1)N1CCCC1 [Compound 60]
≤ 100 nM	N#Cc1ccc(NC(=O)c2ccc3c(c2)nc2n3CCN(C3CCC3)CC2)cc1 [Compound 61, 3-cyclobutyl-N-(4-cyanophenyl)-2,3,4,5-tetrahydro-1H-[1,4]diazepino[1,7-a]benzimidazole-9-carboxamide]
≤ 100 nM	c1cnc(Nc2ccc3c(c2)nc2n3CCN(C3CCC3)CC2)cn1 [Compound 65, 3-cyclobutyl-N-(pyrazin-2-yl)-2,3,4,5-tetrahydro-1H-[1,4]diazepino[1,7-a]benzimidazol-9-amine]
≤ 10 nM	c1cn(-c2ccc3c(c2)nc2n3CCN(C3CCC3)CC2)cn1 [Compound 66]
≤ 100 nM	c1cnc2c(c1)ccn2-c1ccc2c(c1)nc1n2CCN(C2CCC2)CC1 [Compound 70, 3-cyclobutyl-9-(1H-pyrrolo[2,3-b]pyridin-1-yl)-2,3,4,5-tetrahydro-1H-[1,4]diazepino[1,7-a]benzimidazole]
